System: H. pylori 26695
Experiment: In vivo inhibition of HsrA: RNA-Seq transcriptomic analysis of exposed cells
Assay type: cell-based, Helicobacter pylori
Settings: for log2 Fold Change: exposed to lethal concentrations vs control
Method: Bacterial growth from three blood agar plates of H. pylori ATCC 700392 (aka 26695) incubated for 48 h at 37 °C under microaerobic conditions was aseptically resuspended in BHI + FBS and adjusted to 10^7 CFU/mL. BHI broth cultures were incubated microaerobically at 37 °C for 24 h. […] At this time, bacterial growth was stopped by adding 1.5 mL ice-cold RNA stop solution (95% absolute ethanol, 5% acid-buffered phenol) and subsequently incubated on ice. Control samples were exposed to the same amount of DMSO instead of the inhibitor. Helicobacter cells from all samples were harvested by centrifugation (4000 rpm at 4 °C for 10 min), then the pellets were quickly frozen by immersion in liquid nitrogen and stored at −80 °C.
RNA-Seq analysis was performed by GENEWIZ (Azenta Life Sciences, Leipzig, Germany). Frozen cell pellets from two biological replicates of each treatment condition were properly submitted to GENEWIZ in dry ice. RNA-Seq libraries were prepared according to standard protocols via rRNA depletion, RNA fragmentation and random priming, reverse transcription, 5’-phosphorylation and dA-tailing of cDNAs, adaptor ligation, and PCR enrichment. Once the quality of each library was confirmed, they were sequenced on an Illumina NovaSeq 6000 (Illumina, San Diego, CA, USA) with 150-bp paired-ends. Raw sequence reads were filtered to remove possible adapter sequences and nucleotides with poor quality using Trimmomatic v.0.36 [105]. The trimmed reads were subsequently mapped to the H. pylori strain 26695 reference genome NC_000915.1 available on NCBI, by using the Bowtie2 aligner v.2.2.6 [106]. Unique gene hit counts were calculated by using featureCounts from the Subread package v.1.5.2. Only unique reads that fell within the gene regions were counted. Using DESeq2 [108], a comparison of the gene expression between the control and treated groups of samples was performed. The Wald test was used to generate p-values and log2 fold changes. Genes with an adjusted p-value < 0.05 and absolute log2 fold change >1 were considered as differentially expressed genes (DEGs) for each comparison. The RNA-Seq data generated in this study have been deposited in ArrayExpress with the accession number E-MTAB-14255.

NC(=NOC(=O)Nc1ccc(Cl)cc1)c1csc([N+](=O)[O-])c1 [Ligand V, N′-{[(4-chloroanilino)carbonyl]}oxy-5-nitrothiophene-3-carboximidamide]
log2 Fold Change HP0986 (gene HP0986, lethal concentrations of V vs control): 0.434
log2 Fold Change (gene HP0987): -0.503
log2 Fold Change HP0989 (gene HP0989, lethal concentrations of V vs control): 0.305
log2 Fold Change HP0993 (gene HP0993, lethal concentrations of V vs control): 0.415
log2 Fold Change HP0995 (gene HP0995, lethal concentrations of V vs control): 0.339
log2 Fold Change HP0997 (gene HP0997, lethal concentrations of V vs control): 0.344
log2 Fold Change HP1008 (gene HP1008, lethal concentrations of V vs control): 0.406
log2 Fold Change HP1023 (gene HP1023, lethal concentrations of V vs control): 0.173
log2 Fold Change HP1030 (gene HP1030, lethal concentrations of V vs control): 0.181
log2 Fold Change HP1036 (gene HP1036, lethal concentrations of V vs control): 0.464
log2 Fold Change (gene HP1042): -0.579
log2 Fold Change HP1057 (gene HP1057, lethal concentrations of V vs control): 0.304
log2 Fold Change (gene HP1067): -0.595
log2 Fold Change HP1080 (gene HP1080, lethal concentrations of V vs control): 0.450
log2 Fold Change HP1083 (gene HP1083, lethal concentrations of V vs control): 0.380
log2 Fold Change HP1088 (gene HP1088, lethal concentrations of V vs control): 0.367
log2 Fold Change HP1091 (gene HP1091, lethal concentrations of V vs control): 0.326
log2 Fold Change HP1094 (gene HP1094, lethal concentrations of V vs control): 0.330
log2 Fold Change HP1095 (gene HP1095, lethal concentrations of V vs control): 0.451
log2 Fold Change HP1096 (gene HP1096, lethal concentrations of V vs control): 0.362
log2 Fold Change HP1098 (gene HP1098, lethal concentrations of V vs control): 0.266
log2 Fold Change (gene HP1102): 1.324
log2 Fold Change (gene HP1112): -0.531
log2 Fold Change HP1113 (gene HP1113, lethal concentrations of V vs control): 0.235
log2 Fold Change HP1115 (gene HP1115, lethal concentrations of V vs control): 0.309
log2 Fold Change HP1120 (gene HP1120, lethal concentrations of V vs control): 0.296
log2 Fold Change HP1122 (gene HP1122, lethal concentrations of V vs control): 0.364
log2 Fold Change HP1125 (gene HP1125, lethal concentrations of V vs control): 0.243
log2 Fold Change HP1132 (gene HP1132, lethal concentrations of V vs control): 0.451
log2 Fold Change HP1139 (gene HP1139, lethal concentrations of V vs control): 0.341
log2 Fold Change HP1140 (gene HP1140, lethal concentrations of V vs control): 0.260
log2 Fold Change HP1142 (gene HP1142, lethal concentrations of V vs control): 0.424
log2 Fold Change HP1154 (gene HP1154, lethal concentrations of V vs control): 0.259
log2 Fold Change HP1157 (gene HP1157, lethal concentrations of V vs control): 0.263
log2 Fold Change (gene HP1159): -0.549
log2 Fold Change HP1164 (gene HP1164, lethal concentrations of V vs control): 0.208
log2 Fold Change HP1165 (gene HP1165, lethal concentrations of V vs control): 0.470
log2 Fold Change HP1171 (gene HP1171, lethal concentrations of V vs control): 0.290
log2 Fold Change (gene HP1184): -0.471
log2 Fold Change HP1193 (gene HP1193, lethal concentrations of V vs control): 0.413
log2 Fold Change (gene HP1196): -0.491
log2 Fold Change HP1218 (gene HP1218, lethal concentrations of V vs control): 0.194
log2 Fold Change HP1221 (gene HP1221, lethal concentrations of V vs control): 0.426
log2 Fold Change HP1222 (gene HP1222, lethal concentrations of V vs control): 0.384
log2 Fold Change HP1226 (gene HP1226, lethal concentrations of V vs control): 0.186
log2 Fold Change (gene HP1232): -0.511
log2 Fold Change HP1234 (gene HP1234, lethal concentrations of V vs control): 0.340
log2 Fold Change (gene HP1243): 1.352
log2 Fold Change HP1251 (gene HP1251, lethal concentrations of V vs control): 0.458
log2 Fold Change (gene HP1258): -0.491
log2 Fold Change HP1261 (gene HP1261, lethal concentrations of V vs control): 0.181
log2 Fold Change HP1262 (gene HP1262, lethal concentrations of V vs control): 0.367
log2 Fold Change HP1264 (gene HP1264, lethal concentrations of V vs control): 0.389
log2 Fold Change HP1267 (gene HP1267, lethal concentrations of V vs control): 0.146
log2 Fold Change (gene HP1270): -0.476
log2 Fold Change HP1285 (gene HP1285, lethal concentrations of V vs control): 0.248
log2 Fold Change HP1322 (gene HP1322, lethal concentrations of V vs control): 0.318
log2 Fold Change HP1337 (gene HP1337, lethal concentrations of V vs control): 0.239
log2 Fold Change (gene HP1343): -0.493
log2 Fold Change (gene HP1346): -0.518
log2 Fold Change HP1352 (gene HP1352, lethal concentrations of V vs control): 0.160
log2 Fold Change (gene HP1355): -0.601
log2 Fold Change (gene HP1357): -0.489
log2 Fold Change HP1358 (gene HP1358, lethal concentrations of V vs control): 0.185
log2 Fold Change HP1359 (gene HP1359, lethal concentrations of V vs control): 0.220
log2 Fold Change HP1361 (gene HP1361, lethal concentrations of V vs control): 0.344
log2 Fold Change HP1363 (gene HP1363, lethal concentrations of V vs control): 0.291
log2 Fold Change HP1366 (gene HP1366, lethal concentrations of V vs control): 0.348
log2 Fold Change HP1371 (gene HP1371, lethal concentrations of V vs control): 0.280
log2 Fold Change HP1377 (gene HP1377, lethal concentrations of V vs control): 0.474
log2 Fold Change HP1380 (gene HP1380, lethal concentrations of V vs control): 0.326
log2 Fold Change (gene HP1381): -0.548
log2 Fold Change HP1385 (gene HP1385, lethal concentrations of V vs control): 0.232
log2 Fold Change HP1404 (gene HP1404, lethal concentrations of V vs control): 0.393
log2 Fold Change (gene HP1411): 1.307
log2 Fold Change HP1433 (gene HP1433, lethal concentrations of V vs control): 0.238
log2 Fold Change HP1434 (gene HP1434, lethal concentrations of V vs control): 0.407
log2 Fold Change HP1435 (gene HP1435, lethal concentrations of V vs control): 0.348
log2 Fold Change HP1436 (gene HP1436, lethal concentrations of V vs control): 0.297
log2 Fold Change HP1438 (gene HP1438, lethal concentrations of V vs control): 0.319
log2 Fold Change (gene HP1442): -0.497

— publication PMC11432330, “Novel Drug-like HsrA Inhibitors Exhibit Potent Narrow-Spectrum Antimicrobial Activities against Helicobacter pylori” (International Journal of Molecular Sciences, 2024)
